Data from publication PMC11855827, “High-Throughput Screening of Five Compound Libraries for Anthelmintic Activity and Toxicity Leads to the Discovery of Two Flavonoid Compounds” (International Journal of Molecular Sciences, 2025).
Where two headings read alike, the source gives them in different places.

Test system: C. elegans
Test: microbe, parasite or virus in culture
Conditions: Caenorhabditis elegans
[1] = 0 h, read-out: Percentage of motility inhibition 0 h, Table S2, C. elegans SS assay, 110 μM, 0 h, averages of 4 data points
[2] = 24 h, read-out: Percentage of motility inhibition 24 h, Table S2, C. elegans SS assay, 110 μM, 24 h, averages of 4 data points
[3] = 0 h, read-out: Percentage of motility inhibition 0 h
[4] = 24 h, read-out: Percentage of motility inhibition 24 h

Compound `CC(C)(C)CC(C)(C)c1ccc(O)c(Cc2ccc(Cl)cc2Cl)c1` [Clofoctol] has an inhibition at 110 µM [1] of 37% and an inhibition at 110 µM [2] of 44%.

Compound `Cc1nc(C)c(Cl)c(O)c1Cl` [Clopidol] has an inhibition at 110 µM [1] of 7% and an inhibition at 110 µM [2] of 11%.

Work on `Nc1cc(C(Cl)=C(Cl)Cl)c(S(N)(=O)=O)cc1S(N)(=O)=O` [Clorsulon] yielded an inhibition at 110 µM [1] of 12% and an inhibition at 110 µM [2] of 5%.

`Cc1cc(C(C#N)c2ccc(Cl)cc2)c(Cl)cc1NC(=O)c1cc(I)cc(I)c1O` (centres unmarked) [Closantel] gave an inhibition at 110 µM [1] of 4% and an inhibition at 110 µM [2] of 48%.

Work on `Clc1ccccc1C(c1ccccc1)(c1ccccc1)n1ccnc1` [Clotrimazole] yielded an inhibition at 110 µM [1] of 6% and an inhibition at 110 µM [2] of 0%.

`Oc1ccc(Cl)c2cccnc12` [Cloxiquine] was tested, and the inhibition at 110 µM [1] was 40% and the inhibition at 110 µM [2] was 19%.

For `COc1cc2c(c(OC)c1OC)-c1ccc(OC)c(=O)cc1[C@@H](NC(C)=O)CC2` [Colchicine], the inhibition at 110 µM [3] was 0% and the inhibition at 110 µM [4] was 6%.

Work on `COc1cc2c(cc1O)-c1cc3ccc(OC)c(OC)c3c[n+]1CC2` [Columbamine] yielded an inhibition at 110 µM [1] of 1% and an inhibition at 110 µM [2] of 0%.

For `COc1cc(O)c2c(=O)c(O[C@@H]3O[C@H](CO)[C@@H](O)[C@H](O)[C@H]3O)c(-c3ccc(O[C@@H]4O[C@H](CO)[C@@H](O)[C@H](O)[C@H]4O)cc3)oc2c1` [Complanatuside], the inhibition at 110 µM [1] was 0% and the inhibition at 110 µM [2] was 22%.

`C[C@@H]1O[C@@H](O[C@H]2CC[C@]3(C=O)[C@H]4CC[C@]5(C)[C@@H](C6=CC(=O)OC6)CC[C@]5(O)[C@@H]4CC[C@]3(O)C2)[C@H](O)[C@H](O)[C@H]1O` [Convallatoxin] showed an inhibition at 110 µM [1] of 2% and an inhibition at 110 µM [2] of 3%.

In the case of `CC[C@H]1C[C@@H]2CN3CCc4c([nH]c5ccccc45)[C@](C(=O)OC)(C2)[C@H]13` [Coronaridine], the inhibition at 110 µM [1] is reported as 0% and the inhibition at 110 µM [2] is reported as 5%.

Compound `C[C@H]1[C@H](C)CC[C@]2(C(=O)O)CC[C@]3(C)C(=CC[C@@H]4[C@@]5(C)C[C@@H](O)[C@H](O)C(C)(C)[C@@H]5CC[C@]43C)[C@H]12` [Corosolic acid] has an inhibition at 110 µM [1] of 23% and an inhibition at 110 µM [2] of 34%.

For `C=C[C@H]1CN2CC[C@]3(C(=O)Nc4ccccc43)[C@@H]2C[C@@H]1/C(=C\OC)C(=O)OC` [Corynoxeine], the inhibition at 110 µM [1] was 0% and the inhibition at 110 µM [2] was 2%.

Compound `CC[C@@H]1CN2CC[C@]3(C(=O)Nc4ccccc43)[C@@H]2C[C@@H]1/C(=C\OC)C(=O)OC` [Corynoxine B] has an inhibition at 110 µM [1] of 5% and an inhibition at 110 µM [2] of 20%.

`CC[C@@H]1CN2CC[C@@]3(C(=O)Nc4ccccc43)[C@@H]2C[C@@H]1/C(=C\OC)C(=O)OC` [Corynoxine] gave an inhibition at 110 µM [1] of 3% and an inhibition at 110 µM [2] of 3%.

Work on `C=C1C(=O)O[C@@H]2/C=C(\C)CC/C=C(\C)CC[C@@H]12` [Costunolide] yielded an inhibition at 110 µM [1] of 0% and an inhibition at 110 µM [2] of 21%.

`CN1C(=O)CC[C@H]1c1cccnc1` [Cotinine] was tested, and the inhibition at 110 µM [1] was 45% and the inhibition at 110 µM [2] was 16%.

`O=c1ccc2ccccc2o1` [Coumarin] showed an inhibition at 110 µM [1] of 12% and an inhibition at 110 µM [2] of 8%.

Compound `CCN1C[C@]2(COC)CC[C@H](OC)[C@]34C1[C@H]([C@H](OC)[C@H]23)[C@@]1(OC(C)=O)C[C@H](OC)[C@@]2(O)C[C@@H]4[C@@H]1[C@H]2OC(=O)c1ccc(OC)cc1` [Crassicauline A] has an inhibition at 110 µM [1] of 0% and an inhibition at 110 µM [2] of 0%.

In the case of `CN(CC(=O)O)C(=N)N` [Creatine], the inhibition at 110 µM [1] is reported as 4% and the inhibition at 110 µM [2] is reported as 9%.

`COc1ccc2c(c1OC)CC1c3c(cc4c(c3-2)OCO4)CCN1C` (centres unmarked) [Crebanine] showed an inhibition at 110 µM [1] of 0% and an inhibition at 110 µM [2] of 4%.

`CC(C)(O)/C=C/C(=O)[C@](C)(O)[C@H]1[C@H](O)C[C@@]2(C)[C@@H]3CC=C4[C@@H](C[C@H](O)C(=O)C4(C)C)[C@]3(C)C(=O)C[C@]12C` [Cucurbitacin D] was tested, and the inhibition at 110 µM [1] was 10% and the inhibition at 110 µM [2] was 22%.

In the case of `CC(=O)OC(C)(C)/C=C/C(=O)[C@](C)(O)[C@H]1[C@H](O)C[C@@]2(C)[C@@H]3CC=C4[C@@H](C=C(O)C(=O)C4(C)C)[C@]3(C)C(=O)C[C@]12C` [Cucurbitacin E], the inhibition at 110 µM [1] is reported as 0% and the inhibition at 110 µM [2] is reported as 11%.

`CC(C)(O)/C=C/C(=O)[C@](C)(O)[C@H]1[C@H](O)C[C@@]2(C)[C@@H]3CC=C4[C@@H](C=C(O)C(=O)C4(C)C)[C@]3(C)C(=O)C[C@]12C` [Cucurbitacin I] was tested, and the inhibition at 110 µM [1] was 0% and the inhibition at 110 µM [2] was 23%.

With `CC1=C[C@]2(O)O[C@@]3(CC2=C(C)C)[C@@H](C)CC[C@@H]13` [Curcumenol] the inhibition at 110 µM [1] was 0% and the inhibition at 110 µM [2] was 38%.

`C=CC1(C)Cc2occ(C)c2C(=O)C1C(=C)C` (centres unmarked) [Curzerenone] showed an inhibition at 110 µM [1] of 10% and an inhibition at 110 µM [2] of 9%.

In the case of `COc1cc(/C=C/C(=O)O[C@H]2CC[C@]34C[C@]35CC[C@]3(C)[C@@H]([C@H](C)CCC=C(C)C)CC[C@@]3(C)[C@@H]5CC[C@H]4C2(C)C)ccc1O` [Cycloartenyl ferulate], the inhibition at 110 µM [1] is reported as 35% and the inhibition at 110 µM [2] is reported as 21%.

In the case of `C[C@@H]1C[C@@H]([C@H](O)CC2CC(=O)NC(=O)C2)C(=O)[C@@H](C)C1` [Cycloheximide], the inhibition at 110 µM [1] is reported as 17% and the inhibition at 110 µM [2] is reported as 0%.

Compound `CC1=C2C[C@H]3[C@@H](CC=C4C[C@@H](O)CC[C@@]43C)[C@@H]2CC[C@]12O[C@@H]1C[C@H](C)CN[C@H]1[C@H]2C` [Cyclopamine] has an inhibition at 110 µM [3] of 0% and an inhibition at 110 µM [4] of 14%.

For `CC(=O)C1=C(O)[C@@H]2[C@H]3c4c[nH]c5cccc(c45)C[C@H]3C(C)(C)N2C1=O` [Cyclopiazonic acid], the inhibition at 110 µM [1] was 6% and the inhibition at 110 µM [2] was 2%.

`CC(C1CC1)C(O)(Cn1cncn1)c1ccc(Cl)cc1` (centres unmarked) [Cyproconazole] showed an inhibition at 110 µM [1] of 42% and an inhibition at 110 µM [2] of 0%.

`Nc1ccn([C@@H]2O[C@H](CO)[C@@H](O)[C@H]2O)c(=O)n1` [Cytidine] gave an inhibition at 110 µM [1] of 12% and an inhibition at 110 µM [2] of 5%.

With `OC[C@@H](O)[C@@H](O)[C@H](O)[C@H](O)CO` [D-Mannitol] the inhibition at 110 µM [1] was 11% and the inhibition at 110 µM [2] was 0%.

With `CC(C)(CO)[C@@H](O)C(=O)NCCC(=O)O` [D-Pantothenic acid] the inhibition at 110 µM [1] was 9% and the inhibition at 110 µM [2] was 10%.

`OC[C@@H](O)[C@@H](O)[C@H](O)[C@@H](O)CO` [D-Sorbitol] gave an inhibition at 110 µM [1] of 0% and an inhibition at 110 µM [2] of 7%.

`COC(=O)N[C@H](C(=O)N1CCC[C@H]1c1nc(-c2ccc(-c3ccc(-c4c[nH]c([C@@H]5CCCN5C(=O)[C@@H](NC(=O)OC)C(C)C)n4)cc3)cc2)c[nH]1)C(C)C` [Daclatasvir] was tested, and the inhibition at 110 µM [1] was 44% and the inhibition at 110 µM [2] was 43%.

With `C=C(CCC=C(C)C)[C@H]1CC[C@]2(C)[C@@H]1[C@H](O)C[C@@H]1[C@@]3(C)C[C@@H](O)[C@H](O[C@@H]4O[C@H](CO)[C@@H](O)[C@H](O)[C@H]4O[C@@H]4O[C@H](CO)[C@@H](O)[C@H](O)[C@H]4O)C(C)(C)[C@@H]3CC[C@]12C` [Damulin B] the inhibition at 110 µM [1] was 9% and the inhibition at 110 µM [2] was 16%.

Work on `CC(C)(C)OC(=O)N[C@H]1CCCCC/C=C\[C@@H]2C[C@@]2(C(=O)NS(=O)(=O)C2CC2)NC(=O)[C@@H]2C[C@@H](OC(=O)N3Cc4cccc(F)c4C3)CN2C1=O` [Danoprevir] yielded an inhibition at 110 µM [1] of 60% and an inhibition at 110 µM [2] of 24%.

`O=C1c2cccc(O)c2C(=O)c2c(O)cccc21` [Danthron] gave an inhibition at 110 µM [1] of 21% and an inhibition at 110 µM [2] of 9%.

`O=c1ccc2ccc(O)c(O)c2o1` [Daphnetin] was tested, and the inhibition at 110 µM [1] was 0% and the inhibition at 110 µM [2] was 1%.
